Laboratory results published in US20050267145A1, “Treatment for lung cancer” (priority 2004, published 2005).

Experiments:
5-lipoxygenase = molecular target: T1, 5-lipoxygenase (Mus musculus, UniProt P48999); experiment: Sustained 5-lipoxygenase inhibition in vitro (LTC4 by RIA, mouse peritoneal macrophages, washout); type: cell-based; settings: 10 μM for 30 minutes, washed, six hours washout, zymosan 50 μg/mL challenge; for inhibition at 10 µM: read-out: Sustained Inhibition, 10 μM Initial
T1 construct: Resident mouse peritoneal macrophages were obtained from male CD-1 mice; endogenous in cells; host or cells: resident peritoneal macrophages from male CD-1 mice (Charles River Laboratories)
T1 sequence (P48999 1-674): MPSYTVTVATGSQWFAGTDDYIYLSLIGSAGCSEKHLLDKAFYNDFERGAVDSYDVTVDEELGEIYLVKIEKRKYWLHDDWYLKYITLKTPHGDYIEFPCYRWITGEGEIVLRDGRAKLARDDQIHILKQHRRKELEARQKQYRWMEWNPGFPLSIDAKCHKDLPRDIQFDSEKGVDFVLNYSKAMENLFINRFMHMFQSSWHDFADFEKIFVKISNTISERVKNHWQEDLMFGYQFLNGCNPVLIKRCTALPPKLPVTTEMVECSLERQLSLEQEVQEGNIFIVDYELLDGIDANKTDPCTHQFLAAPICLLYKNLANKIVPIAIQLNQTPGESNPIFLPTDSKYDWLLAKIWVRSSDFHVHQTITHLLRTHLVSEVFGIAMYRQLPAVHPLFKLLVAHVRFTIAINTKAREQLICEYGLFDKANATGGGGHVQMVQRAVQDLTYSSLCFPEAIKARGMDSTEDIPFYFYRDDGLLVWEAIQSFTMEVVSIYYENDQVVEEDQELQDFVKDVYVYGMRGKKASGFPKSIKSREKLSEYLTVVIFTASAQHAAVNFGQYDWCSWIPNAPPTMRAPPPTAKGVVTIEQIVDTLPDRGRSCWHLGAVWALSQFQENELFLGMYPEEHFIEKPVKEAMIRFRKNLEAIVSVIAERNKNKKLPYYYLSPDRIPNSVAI
Procedure: LTC4 was purchased from Biomol International, L.P., Plymouth Meeting, Pa.; ^3H-LTC4 was purchased from PerkinElmer Life and Analytical Sciences, Inc., Boston, Mass.; and antibody to LTC4 was purchased from Advanced Magnetics, Inc., Cambridge, Mass.
The retrieved lavage medium was added to tissue culture dishes and incubated for two hours at 37° C. in a humidified atmosphere containing 5% CO2. Following macrophage enrichment by adherence, the culture medium was removed and the resultant cell layer was washed twice with PBS, the medium (with heparin) was replaced with 1 mL of medium (without heparin), and the cells were then incubated overnight as described above. The following morning the medium was removed and the macrophages were washed twice with 2 mL PBS. One mL of fresh medium, devoid of serum, was then added.
Test compounds were added to the macrophage cultures to achieve a final concentration of 10 μM. The final DMSO concentration was 0.1% in for each test compound. Blank and control cultures were treated with DMSO only. After 30 minutes incubation, the macrophages were washed twice with 2 mL PBS. […] This treatment described in (b) was to allow for a washout period for the test compound.

pulmonary adenomas = experiment: Benzo(a)pyrene-induced pulmonary adenomas in A/J mice; type: in vivo, mouse; settings: sixteen weeks; for Adenoma counts, groups 1H and 2H compared: high dose 425 μg/kg by inhalation
[1] = tested on: A23187-Stimulated LTB4 in Rat Lung; experiment: A23187-stimulated LTB4 in rat lung in situ (MDI dosing); settings: 20 μg by single MDI activation into excised rat lung, A23187 challenge, LTB4 by RIA
Procedure: For the evaluation of test compounds using metered dose inhalers, dry compounds were dissolved in ethanol to a concentration of 2.33 mg/mL. 2.54 mL of this solution was added to a 20 g glass metered dose inhaler (MDI) vial and fitted with a continuous valve. The vials were cooled on dry ice, filled with 18 g of HFA 134a (DYMEL, E. I. Du Pont de Nemours and Co., Corpus Christi, Tex.), returned to dry ice, and the continuous valve was replaced with an intermittent valve that delivered 25 μL per activation. A single activation of a vial prepared as described delivered 20 μg of compound per activation. For experiments requiring different mass of compound per activation, the initial ethanol solution concentration was adjusted as necessary.
Male Sprague-Dawley rats (Charles River Laboratories, Inc. Wilmington, Mass.) weighing 250-300 grams were anesthetized with methoxyflurane in a closed container, the peritoneal cavity was exposed, and the animals were exsanguinated. The pleural cavity was exposed and the lung was removed with both the trachea and heart attached. The trachea was fitted with a cannula, secured with a ligature, and the distal end of the cannula was extended through a small hole in a #6 rubber stopper allowing for a tight seal. The lung, secured to the cannula and stopper, was then suspended in a 125 mL side arm Erlenmeyer flask filled to 100 mL with PBS warmed to 37° C. As such, access to the airways of the lung could be achieved through the cannula extending through the stopper to the outside of the flask. The flask was then placed in a 37° C. water bath.
An MDI, prepared as described above, containing test compound was fired with a single activation through the cannula and into the airways of the lung. The MDI were made to deliver 20 μg/shot, thus providing a dose of from about 0.06 mg/kg to about 0.08 mg/kg. Control lungs were similarly treated with an MDI containing propellant and co-solvent. The lungs were then incubated for 5 minutes at 37° C. Following this preincubation, 25 μL of 10 mM A23187 (Sigma Chemical Co., St. Louis, Mo.) was fired into the airways and the lung was incubated for an additional 10 minutes. Control lungs again were treated with propellant and co-solvent, only.
The lungs were then lavaged with 5 mL of ice cold PBS containing 1 mM EDTA. The recovered lavage fluid was centrifuged for 10 minutes at 150×g to sediment cells and LTB4 was quantified in the supernatant by specific RIA. The sensitivity of this assay was 155 pg/mL.

[2] = tested on: MC-26 murine colon carcinoma cells; experiment: Lung metastatic mouse model (MC-26 colon carcinoma cells i.v.), lung weight; type: in vivo; settings: statement on Table 3
Procedure: A lung metastatic mouse model was used to determine the anti-tumor activity of a 5-LO inhibitor (zileuton) in combination with an IRM. 12-18 week old CDF1 female mice (Charles River Laboratories, Inc.) weighing 20-22 grams were injected in the tail intravenously with 5×10^5 MC-26 murine colon carcinoma cells. IRM2 was prepared in a 0.03M citrate buffered saline solution, pH 4.0. Zileuton was prepared in a 10% ethanol in water solution. At four hours and 24 hours after tumor challenge, mice were injected intra-peritoneally with zileuton and IRM2 as indicated in Table 3. One group of mice (Vehicle) was untreated. Fourteen days after tumor challenge, mice were sacrificed and lungs were removed and weighed.

lung tumors = settings: mice, administered orally; cited from earlier work

| Compound | inhibition at 10 µM (5-lipoxygenase) [%] | Inhibition, 20 μg in situ [1] | further results |
| --- | --- | --- | --- |
| CCC(CC)N(O)C(=O)Nc1cccc(Oc2ccccc2)c1 [Compound 1, 1-hydroxy-1-(1-ethylpropyl)-3-(3-phenoxyphenyl)urea] | 100 | 100 | Adenoma counts, groups 1H and 2H compared (pulmonary adenomas): similar |
| CCCCCN(O)C(=O)Nc1ccc(OCCCC)cc1 [Compound 2, 3-(4-butoxyphenyl)-1-hydroxy-1-pentylurea] | – | – | Adenoma counts, groups 1H and 2H compared (pulmonary adenomas): similar |
| O=C(Nc1ccccc1)N(O)CCCn1cccc1 [Compound 3, 1-hydroxy-1-(3-pyrrol-1-ylpropyl)-3-phenylurea] | 3 | 84 | – |
| CCCCCN(O)C(=O)Nc1cc(OC)c(OC)c(OC)c1 [Compound 4, 1-hydroxy-1-pentyl-3-(3,4,5-trimethoxyphenyl)urea] | 24 | 84 | – |
| CCC(CC)N(O)C(=O)Nc1ccc(Cc2ccc(NC(=O)N(O)C(CC)CC)cc2)cc1 [Compound 5] | – | 66 | Sustained Inhibition, 10 μM Initial (5-lipoxygenase): 86 |
| CCCCCN(O)C(=O)Nc1ccc(Oc2ccccc2)cc1 [Compound 6, 1-hydroxy-3-(4-phenoxyphenyl)-1-pentylurea] | 100 | 88 | – |
| CSc1ccc(NC(=O)N(O)C(C)C)cc1 [Compound 7, 1-hydroxy-1-(1-methylethyl)-3-[4-(methylthio)phenyl]urea] | 18 | – | – |
| CCC(CC)N(O)C(=O)Nc1ccccc1 [Compound 8, 1-hydroxy-1-(1-ethylpropyl)-3-phenylurea] | 12 | 72 | – |
| CSc1ccc(NC(=O)N(C)O)cc1 [Compound 9, 1-hydroxy-1-methyl-3-[4-(methylthio)phenyl]urea] | 0 | – | – |
| CC(c1cc2ccccc2s1)N(O)C(N)=O (stereo not drawn) [Zileuton, zileuton, reference compound] | 28 | 42 | effect on the number of pulmonary adenomas (pulmonary adenomas; oral, average 245 mg/kg in the diet): did not have any apparent effect; tumor growth [2]: inhibits tumor growth; preventing lung tumors and slowing growth and progression of adenoma to carcinoma (lung tumors): effective |
